assay: Human HepG2 cell viability assay in 384 well format; type: toxicity, cell-based; design: dose 125 nL, time 70.5 hour; concentration not given beside the values; conditions: HepG2 cells, read-out: Inhibition

| Structure (SMILES) | cytotoxicity at 70.5 h [%] |
| --- | --- |
| O=C(Cc1ccc2c(c1)CCO2)Nc1ccc(-n2cncn2)nc1 | 16.4 |
| O=C(Nc1ccc(Cl)cn1)C1CCCN(CCc2ccncc2)C1 (centres undefined) | -1.77 |
| Cc1oc(NC(=O)C(C)N2CCN(C(=O)C3CC3)CC2)c(C#N)c1C (centres undefined) | -1.91 |
| Cc1oc(NC(=O)C(C)N2CCN(CCO)CC2)c(C#N)c1C (centres undefined) | -2.61 |
| CC(C)(C)C(=O)Cn1nc(C2CC2)cc(C(F)(F)F)c1=O | -0.663 |
| OCCN1CCC(CNCc2ccc(N3CCCCC3)cc2)CC1 | 1.15 |
| Cc1cnc(C(=O)N2CCCN(Cc3cnn(C(C)C)c3)CC2)cn1 | 17.6 |
| Cc1nc(C2CCCN2CC(=O)Nc2c(C)nn(C)c2C)no1 (centres undefined) | -3.49 |
| Cc1nc(C)n(CC2CN(CCc3cccs3)CCO2)n1 (centres undefined) | -5.27 |
| O=C(C1CCCC1)N1CCCC1c1nnc2n1CCCCC2 (centres undefined) | 1.94 |
| Cc1cc(F)ccc1NC(=O)NCC(C)N1CCOCC1 (centres undefined) | 32.7 |
| CC1CCCN(C(=O)Nc2ccc(F)c(C(N)=O)c2)C1 (centres undefined) | -1.11 |
| CCN(CC)C(CNS(=O)(=O)c1ccc(C(N)=O)cc1)c1ccco1 (centres undefined) | -0.105 |
| NC(=O)c1cc(NC(=O)N2CCOCC2)ccc1F | 9.19 |
| CC(CNC(=O)Nc1ccc(F)cc1Br)N1CCOCC1 (centres undefined) | 31.4 |
| c1ccc2c(N3CCOC(Cn4cccn4)C3)ncnc2c1 (centres undefined) | -4.3 |
| CSC(C)(C)CNC(=O)NC(c1nnc2n1CCC2)C(C)C (centres undefined) | -3.59 |
| O=C(CC1CN(Cc2ccccc2)CCO1)NCCN1CCOCC1 (centres undefined) | 37.5 |
| Cc1nsc(N2CCCN(C(=O)NCc3cc(C)on3)CC2)n1 | -1.32 |
| Cc1noc(CNC(=O)N2CCN(c3nc(C)c(C)s3)CC2)n1 | -3.61 |
| Cc1nc(N2CCN(C(=O)NCc3cscn3)CC2)sc1C | -2.92 |
| CC(CNC(=O)Nc1ccc(F)cc1-n1cccc1)N1CCOCC1 (centres undefined) | 4.4 |
| Cn1cc(CCNC(=O)N2CCCC(Cc3nccn3C)C2)cn1 (centres undefined) | -0.841 |
| Cn1ccnc1CC1CCCN(C(=O)NCCOc2cccnc2)C1 (centres undefined) | 1.38 |

| Structure (SMILES) | cytotoxicity at 70.5 h [%] |
| --- | --- |
| CCc1nncn1CCNC(=O)N1CCCC(Cc2nccn2C)C1 (centres undefined) | 32.8 |
| Cc1cc(C)n(CCC(=O)N2CCCC(n3nc(C)nc3C)C2)n1 (centres undefined) | -6.97 |
| N#CC1(NC(=O)CNCCn2cccn2)CCCCC1 | -1.06 |
| CCC(CNC1CCN(C(C)=O)CC1)Oc1cccc(C)c1 (centres undefined) | -6.04 |
| Cc1sc2nc(C(F)(F)F)nc(N3CCCN(C)CC3)c2c1C | 22.1 |
| Cc1sc2nc(C(F)(F)F)nc(N3CCN(S(C)(=O)=O)CC3)c2c1C | -4.32 |
| CCCc1nc(C)c(C(=O)NC2CCN(C3CC3)C2)s1 (centres undefined) | 14.1 |
| CN(Cc1ccc2c(c1)OCO2)Cc1nc(-c2ccco2)no1 | -10.9 |
| CCOc1ccc(CNCc2ccc(C(=O)NC)cc2)cc1OCC | -7.21 |
| CNC(=O)c1ccc(CNCc2ccc(SC)c(OC)c2)cc1 | 27 |
| CC(C)c1ncc2c(n1)CN(Cc1nc3c(F)cccc3[nH]1)CC2 | 21 |
| N#Cc1ccc(C(=O)NS(=O)(=O)c2ccc(C#N)c(Cl)c2)cc1 | -8.83 |
| CN(C(=O)CNCCn1cccn1)C1(C#N)CCCCC1 | -3.85 |
| Cc1cc(C)c(C(=O)N2CCOC(c3cccs3)C2)c(=O)[nH]1 (centres undefined) | -6.92 |
| COc1ccnc(NC(=O)c2cscc2C)c1 | -2.28 |
| COc1cc(NC(=O)c2cscn2)ncn1 | 22.1 |
| N#Cc1ccc(C(=O)NS(=O)(=O)c2ccc(F)c(F)c2)cc1 | 28.9 |
| O=C(NCCSCc1cccs1)C1CCCN(C(=O)N2CCCC2)C1 (centres undefined) | -6.45 |
| Cc1[nH]ncc1C(=O)N1CCOC(c2cccs2)C1 (centres undefined) | 25.7 |
| c1cncc(CNc2cccc(OCCN3CCCCC3)c2)c1 | -11.5 |
| CCOC(C)c1noc(CN2CCN(Cc3ccno3)CC2)n1 (centres undefined) | -3.49 |
| CCOC(C)c1noc(CN2CCCN(c3ccccn3)CC2)n1 (centres undefined) | -12.6 |
| CC(C)c1nc(CC(=O)N(C)Cc2ccc3c(c2)OCO3)cs1 | -6.29 |
| CCN(C(c1cccnc1)c1ccc(F)c(F)c1)S(C)(=O)=O (centres undefined) | -4.7 |

| Structure (SMILES) | cytotoxicity at 70.5 h [%] |
| --- | --- |
| CCOc1ccc(CC(=O)Nc2cnccc2SCCCO)cc1 | -6.43 |
| CCN(C(c1ccc(OC)cc1)c1cccnc1)S(C)(=O)=O (centres undefined) | -9.72 |
| CC1CCCN(C(=O)CCNS(=O)(=O)c2cccnc2)C1 (centres undefined) | 1.82 |
| O=C(NC1CC1)C1CCCN1c1ncnc2ccsc12 (centres undefined) | -9.43 |
| O=C(CCNS(=O)(=O)c1ccccc1)N1CCOC(c2ccccc2)C1 (centres undefined) | -18 |
| CCN(CC(=O)N(C)C)C(=O)c1cc(-c2cccc(Cl)c2)no1 | 3.05 |
| CCN(CC)C(=O)c1cc(-c2cccc(Cl)c2)no1 | -5.28 |
| CC(CC#N)N1CCN(C(=O)OC(C)(C)C)CC1 (centres undefined) | 13.3 |
| c1cc(-c2noc(CN3CCc4c(ncn4C4CC4)C3)n2)cs1 | -20.1 |
| CCNC(=O)CN(CC)C(=O)c1cc(-c2cccc(Cl)c2)no1 | -0.184 |
| CC(C)CC(C#N)NC(=O)COC1CCCCC1 (centres undefined) | -8.86 |
| CCN(CC)C(=O)CN(C)C(=O)c1cc(-c2cccc(Cl)c2)no1 | -15.3 |
| CN(CCc1ccncc1)C(=O)C1CSCN1C(=O)C1CCCC1 (centres undefined) | -5.06 |
| CC(=O)Nc1cccc(CNC(=O)N(C)Cc2ccccc2)c1 | -8.01 |
| O=C(NCCc1nnc2n1CCC2)c1ccccc1OC1CCCC1 | -9.31 |
| O=S(=O)(c1cccnc1)N1CCCC1COc1ccccc1 (centres undefined) | -4.52 |
| CCN(CCC(F)(F)F)S(=O)(=O)c1cccc(F)c1C#N | -4.04 |
| CC(C)Oc1ccccc1C(=O)NCCc1nncn1C | -6.83 |
| c1ccc(-c2nc(CN3CCn4c(nnc4C4CC4)C3)no2)cc1 | -9.58 |
| CC(C)C1CN(S(=O)(=O)Cc2cccc(C#N)c2)CCS1 (centres undefined) | -9.85 |
| CC(C)C1CN(S(=O)(=O)c2ccc(C#N)cc2)CCS1 (centres undefined) | -11.1 |
| Cc1cccc(-c2noc(CN3CCn4c(nnc4C4CC4)C3)n2)c1 | -5 |
| c1coc(-c2noc(CN3CCc4c(ncn4C4CC4)C3)n2)c1 | 1.12 |
| CC(C)CC(CCO)CNC(=O)N1CC(C)(C)C1(C)C (centres undefined) | -7.83 |

| Structure (SMILES) | cytotoxicity at 70.5 h [%] |
| --- | --- |
| Cc1ccc(OCCN(C)Cc2ccc(S(=O)(=O)N(C)C)o2)cc1 | -5.02 |
| Cc1ccc(-c2nnc(C(C)N3CCc4cncnc4C3)o2)cc1 (centres undefined) | 1.38 |
| CC(O)CN1CCC(CN(C)C(=O)NC2CC2)CC1 (centres undefined) | -1.96 |
| NC(=O)CN(Cc1ccc(Br)cc1)C(=O)c1cccnc1 | -3.52 |
| O=C(Nc1ccccc1Cn1cccn1)N1CCCC(N2CCCC2)C1 (centres undefined) | 16.1 |
| COC(=O)C(C)(C)S(=O)(=O)c1ccc(Br)cc1 | -1.38 |
| Cc1ccc(N(C)C2CCN(C(=O)c3n[nH]c4c3CCC4)CC2)nn1 | -3.25 |
| CC(C)(C(=O)O)S(=O)(=O)c1ccc(Br)cc1 | 0.0653 |
| O=C1C(Sc2nnnn2C2CC2)CCN1c1ccccc1Cl (centres undefined) | -6.47 |
| Cc1nc(O)ccc1C(=O)NCc1ncccc1F | -2.33 |
| N#CCCN(CC(F)(F)F)C(=O)c1cc(-n2cccn2)ccn1 | -3.35 |
| Cc1cc(CNC2(c3ccccc3F)CC2)no1 | -4.02 |
| Cc1nc(CN(C)c2cc(N3CCCC3CO)ncn2)cs1 (centres undefined) | -3.26 |
| Cc1cnn(CCNCc2c(C)nn(-c3ccccc3)c2C)c1 | 2.45 |
| N#Cc1ccnc(N2CCN(C(=O)c3ccc4c(c3)CCO4)CC2)c1 | -3.35 |
| O=S(=O)(NCCSc1nccn1C1CC1)c1ccccc1 | -3.08 |
| COCCN(CCOC)C(=O)c1cc(F)cc2[nH]cnc12 | -4.53 |
| CCN(CC)C(=O)c1cccc(Cn2nc(C)cc2C)c1 | -8.82 |
| Cc1nn(CN(CC2CCOC2)C2CC2)c(=O)c2ccccc12 (centres undefined) | -3.01 |
| N#Cc1c(Cl)nsc1N1CCN(CC2CCCCC2)CC1 | 0.793 |
| COC(=O)NC1(C(=O)Nc2ccc(-c3cc[nH]n3)cc2)CCCC1 | -0.955 |
| COC(=O)NC1(C(=O)Nc2ccc(-c3ncc[nH]3)cc2)CCCC1 | 1.15 |
| O=C(O)CC1CN(S(=O)(=O)c2cccc(F)c2)c2ccccc21 (centres undefined) | 22.7 |
| Cc1cc(NS(=O)(=O)CC2CCCCO2)ccc1F (centres undefined) | -2.48 |

| Structure (SMILES) | cytotoxicity at 70.5 h [%] |
| --- | --- |
| N#Cc1cc(NS(=O)(=O)CC2CCCCO2)ccc1F (centres undefined) | -0.517 |
| COCCCOC1CN(C(=O)c2[nH]nc3c2CCCC3)C1 | 4 |
| CC(C)(C)OC(=O)N1CCCN1C(=O)c1cccc2cc[nH]c12 | 3.87 |
| Cc1ccc(-c2ncc(CNc3cnccc3CO)s2)o1 | -2.69 |
| Cc1ncc(CNc2cnccc2CO)s1 | 6.67 |
| CSC1(CNC(=O)NC(C)c2ccc(F)cc2)CCOCC1 (centres undefined) | 6.41 |
| COCCN(CCOC)C(=O)c1ccc(Cn2nc(C)cc2C)cc1 | 7.43 |
| Cc1cc(CN(CCCO)c2ccccc2)on1 | -0.833 |
| Cc1cc(CN(CCO)c2ccccc2)on1 | 0.618 |
| Cc1csc(CNc2cnn(C(C)C)c2)n1 | 3.67 |
| Cc1csc(CNc2cnn(CC(F)(F)F)c2)n1 | -2.55 |
| COc1cccc(C(O)C(=O)N(C)CCc2ccccn2)c1 (centres undefined) | -0.0669 |
| CC(=O)N(Cc1noc(C)n1)C1CCN(CC2CCCC2)C1 (centres undefined) | 23.3 |
| O=C1CCCN1c1cccc(CNCc2nc(C3CC3)no2)c1 | 8.67 |
| CN(Cc1ccncc1)C(CO)c1cccc(Br)c1 (centres undefined) | -21 |
| c1ccc(Cn2cccn2)c(CNCc2cnc(N3CCCC3)nc2)c1 | -13.6 |
| CNC(=O)NC(=O)CCSCc1cc(F)cc2cccnc12 | -27.1 |
| O=C(Nc1ccc(=O)n(Cc2ccccc2Cl)c1)C1CC1 | -23.5 |
| Cc1cc(C)cc(C(=O)N2CCCN(CC(N)=O)CC2)c1 | 37.8 |
| Cc1nc(NC(=O)N[C@H](CO)c2ccccc2)sc1C | -15.6 |
| O=C(CN1CCC[C@@H]1C(=O)O)NCCOc1cccc(C(F)(F)F)c1 | -6.55 |
| Cc1cc(F)c(S(=O)(=O)NCC(C)(C)N)cc1F | -10.9 |
| CCC(N)C(=O)N1CCC(OCc2ccc(Cl)c(Cl)c2)CC1 (centres undefined) | 8.03 |
